# pEC50: −log10 of the molar value.
# System: SARS-CoV-2
# Assay: Antiviral activity against SARS-CoV-2 B.1 lineage isolate infected in human Calu-3 cells assessed as inhibition of viral replication infected with cells for 1 hr followed by compound addition and measured 24 hrs post infection by crystal violet staining based PFU assay
# Format: functional, organism-based
# Conditions: Severe acute respiratory syndrome coronavirus 2, B.1, Calu-3
row,SMILES,pEC50
1,COc1ccc(/C=C2\Oc3cc(O)ccc3C2=O)cc1,< 5.00
2,COc1ccc2c(c1)O/C(=C\c1ccc(O)cc1)C2=O,5.55
3,COc1cc(/C=C2\Oc3ccccc3C2=O)cc(OC)c1OC,5.24
4,COc1ccc(/C=C2\Oc3cc(OC)ccc3C2=O)cc1,5.82
5,COc1ccc(/C=C2\Oc3cc(O)ccc3C2=O)cc1O,5.25
6,COc1ccc(/C=C2\Oc3cc(OC(F)F)ccc3C2=O)cc1,6.05
7,COCOc1cc(/C=C2\Oc3ccccc3C2=O)ccc1OC,6.00
8,COCOc1cc(/C=C2\Oc3cc(OC)ccc3C2=O)ccc1OC,5.64
9,COCOc1ccc2c(c1)O/C(=C\c1ccc(OC)cc1OCOC)C2=O,6.46
10,COc1ccc(/C=C2\Oc3cc(OCc4ccccc4)ccc3C2=O)cc1,5.66
11,COc1ccc2c(c1)O/C(=C\c1ccccc1)C2=O,6.31
12,COc1ccc(/C=C2\Oc3cc4c(cc3C2=O)OCO4)cc1,5.70
13,COCOc1cc(OC)ccc1/C=C1\Oc2ccccc2C1=O,5.09
14,COCOc1ccc2c(c1)O/C(=C\c1ccc(OC)cc1)C2=O,6.24
15,COc1ccc(/C=C2\Oc3cc(OCc4ccc(F)cc4)ccc3C2=O)cc1,5.54
16,COc1ccc(/C=C2\Oc3c(ccc(O)c3O)C2=O)cc1,5.34
17,COCOc1ccc2c(c1)O/C(=C\c1ccc(OC)c(OCOC)c1)C2=O,6.30

# System: SARS-CoV-2
# Assay: Antiviral activity against SARS-CoV-2 in presence of ritonavir
# Format: functional, organism-based
# Conditions: Severe acute respiratory syndrome coronavirus 2
row,SMILES,pEC50
1,Cc1cccc(C)c1OCC(=O)N[C@@H](Cc1ccccc1)[C@@H](O)C[C@H](Cc1ccccc1)NC(=O)[C@H](C(C)C)N1CCCNC1=O [LOPINAVIR],5.30

# System: not listed separately
# Assay: Cytotoxicity against human Calu-3 cells assessed as cell viability at 250 uM incubated for 72 hrs by methylene blue assay relative to control
# Format: toxicity, cell-based
# Conditions: read-out: Activity
row,SMILES,"viability at 72 h, 250 µM [%]"
1,COc1ccc(/C=C2\Oc3cc(O)ccc3C2=O)cc1,≥ 80
2,COc1ccc2c(c1)O/C(=C\c1ccc(O)cc1)C2=O,≥ 80
3,COc1cc(/C=C2\Oc3ccccc3C2=O)cc(OC)c1OC,≥ 80
4,COc1ccc(/C=C2\Oc3cc(OC)ccc3C2=O)cc1,≥ 80
5,COc1ccc(/C=C2\Oc3cc(O)ccc3C2=O)cc1O,≥ 80
6,COc1ccc(/C=C2\Oc3cc(OC(F)F)ccc3C2=O)cc1,≥ 80
7,COCOc1cc(/C=C2\Oc3ccccc3C2=O)ccc1OC,≥ 80
8,COCOc1cc(/C=C2\Oc3cc(OC)ccc3C2=O)ccc1OC,≥ 80
9,COCOc1ccc2c(c1)O/C(=C\c1ccc(OC)cc1OCOC)C2=O,≥ 80
10,COc1ccc(/C=C2\Oc3cc(OCc4ccccc4)ccc3C2=O)cc1,≥ 80
11,COc1ccc2c(c1)O/C(=C\c1ccccc1)C2=O,≥ 80
12,COc1ccc(/C=C2\Oc3cc4c(cc3C2=O)OCO4)cc1,≥ 80
13,COCOc1cc(OC)ccc1/C=C1\Oc2ccccc2C1=O,≥ 80
14,COCOc1ccc2c(c1)O/C(=C\c1ccc(OC)cc1)C2=O,≥ 80
15,COc1ccc(/C=C2\Oc3cc(OCc4ccc(F)cc4)ccc3C2=O)cc1,≥ 80
16,COc1ccc(/C=C2\Oc3c(ccc(O)c3O)C2=O)cc1,≥ 80
17,COCOc1ccc2c(c1)O/C(=C\c1ccc(OC)c(OCOC)c1)C2=O,≥ 80

# System: SARS-CoV-2
# Assay: Antiviral activity against SARS-CoV-2 B.1 lineage isolate infected in human Calu-3 cells assessed as inhibition of viral replication at 1 uM infected with cells for 1 hr followed by compound addition and measured 24 hrs post infection by crystal violet staining based PFU assay relative to control
# Format: functional
# Conditions: Severe acute respiratory syndrome coronavirus 2, B.1, Calu-3
row,SMILES,inhibition at 1 µM [%]
1,COc1ccc2c(c1)O/C(=C\c1ccc(O)cc1)C2=O,25
2,COc1ccc(/C=C2\Oc3cc(OC)ccc3C2=O)cc1,46.5
3,COc1ccc(/C=C2\Oc3cc(O)ccc3C2=O)cc1O,70.4
4,COc1ccc(/C=C2\Oc3cc(OC(F)F)ccc3C2=O)cc1,69.9
5,COCOc1cc(/C=C2\Oc3ccccc3C2=O)ccc1OC,60.3
6,COCOc1cc(/C=C2\Oc3cc(OC)ccc3C2=O)ccc1OC,34.1
7,COCOc1ccc2c(c1)O/C(=C\c1ccc(OC)cc1OCOC)C2=O,82.5
8,COc1ccc(/C=C2\Oc3cc(OCc4ccccc4)ccc3C2=O)cc1,36.1
9,COc1ccc2c(c1)O/C(=C\c1ccccc1)C2=O,59.1
10,COc1ccc(/C=C2\Oc3cc4c(cc3C2=O)OCO4)cc1,32.5
11,COCOc1ccc2c(c1)O/C(=C\c1ccc(OC)cc1)C2=O,77.6
12,COc1ccc(/C=C2\Oc3cc(OCc4ccc(F)cc4)ccc3C2=O)cc1,14.5
13,COc1ccc(/C=C2\Oc3c(ccc(O)c3O)C2=O)cc1,25.9
14,COCOc1ccc2c(c1)O/C(=C\c1ccc(OC)c(OCOC)c1)C2=O,77

# System: SARS-CoV-2
# Assay: Potency index, ratio of myricetin EC50 to test compound EC50 for antiviral activity against SARS-CoV-2 infected in human Calu-3 cells assessed as inhibition of viral replication
# Format: functional, Severe acute respiratory syndrome coronavirus 2
# Conditions: not given
row,SMILES,Ratio EC50
1,COCOc1ccc2c(c1)O/C(=C\c1ccc(OC)cc1OCOC)C2=O,2

# System: not listed separately
# Assay: Cytotoxicity against human Calu-3 cells assessed as reduction in cell viability incubated for 72 hrs by methylene blue assay
# Format: toxicity, cell-based
# Conditions: not given
row,SMILES,CC50 at 72 h [µM]
1,COc1ccc(/C=C2\Oc3cc(O)ccc3C2=O)cc1,> 250
2,COc1ccc2c(c1)O/C(=C\c1ccc(O)cc1)C2=O,> 300
3,COc1cc(/C=C2\Oc3ccccc3C2=O)cc(OC)c1OC,> 250
4,COc1ccc(/C=C2\Oc3cc(OC)ccc3C2=O)cc1,> 300
5,COc1ccc(/C=C2\Oc3cc(O)ccc3C2=O)cc1O,> 250
6,COc1ccc(/C=C2\Oc3cc(OC(F)F)ccc3C2=O)cc1,> 300
7,COCOc1cc(/C=C2\Oc3ccccc3C2=O)ccc1OC,> 300
8,COCOc1cc(/C=C2\Oc3cc(OC)ccc3C2=O)ccc1OC,> 1000
9,COCOc1ccc2c(c1)O/C(=C\c1ccc(OC)cc1OCOC)C2=O,976
10,COc1ccc(/C=C2\Oc3cc(OCc4ccccc4)ccc3C2=O)cc1,> 300
11,COc1ccc2c(c1)O/C(=C\c1ccccc1)C2=O,> 1000
12,COc1ccc(/C=C2\Oc3cc4c(cc3C2=O)OCO4)cc1,> 1000
13,COCOc1cc(OC)ccc1/C=C1\Oc2ccccc2C1=O,> 250
14,COCOc1ccc2c(c1)O/C(=C\c1ccc(OC)cc1)C2=O,> 1000
15,COc1ccc(/C=C2\Oc3cc(OCc4ccc(F)cc4)ccc3C2=O)cc1,> 300
16,COc1ccc(/C=C2\Oc3c(ccc(O)c3O)C2=O)cc1,> 300
17,COCOc1ccc2c(c1)O/C(=C\c1ccc(OC)c(OCOC)c1)C2=O,817

# System: SARS-CoV-2
# Assay: Potency index, ratio of baicalein EC50 to test compound EC50 for antiviral activity against SARS-CoV-2 infected in human Calu-3 cells assessed as inhibition of viral replication
# Format: functional, Severe acute respiratory syndrome coronavirus 2
# Conditions: not given
row,SMILES,Ratio EC50
1,COCOc1ccc2c(c1)O/C(=C\c1ccc(OC)cc1OCOC)C2=O,3

# System: SARS-CoV-2
# Assay: Antiviral activity against SARS-CoV-2 B.1 lineage isolate infected in human Calu-3 cells assessed as inhibition of viral replication at 10 uM infected with cells for 1 hr followed by compound addition and measured 24 hrs post infection by crystal violet staining based PFU assay relative to control
# Format: functional
# Conditions: Severe acute respiratory syndrome coronavirus 2, B.1, Calu-3
row,SMILES,inhibition at 10 µM [%]
1,COc1ccc(/C=C2\Oc3cc(O)ccc3C2=O)cc1,24
2,COc1ccc2c(c1)O/C(=C\c1ccc(O)cc1)C2=O,88.3
3,COc1cc(/C=C2\Oc3ccccc3C2=O)cc(OC)c1OC,66.4
4,COc1ccc(/C=C2\Oc3cc(OC)ccc3C2=O)cc1,94.8
5,COc1ccc(/C=C2\Oc3cc(O)ccc3C2=O)cc1O,24.4
6,COc1ccc(/C=C2\Oc3cc(OC(F)F)ccc3C2=O)cc1,97.1
7,COCOc1cc(/C=C2\Oc3ccccc3C2=O)ccc1OC,97.6
8,COCOc1cc(/C=C2\Oc3cc(OC)ccc3C2=O)ccc1OC,88.2
9,COCOc1ccc2c(c1)O/C(=C\c1ccc(OC)cc1OCOC)C2=O,96.2
10,COc1ccc(/C=C2\Oc3cc(OCc4ccccc4)ccc3C2=O)cc1,91
11,COc1ccc2c(c1)O/C(=C\c1ccccc1)C2=O,99.7
12,COc1ccc(/C=C2\Oc3cc4c(cc3C2=O)OCO4)cc1,95.8
13,COCOc1cc(OC)ccc1/C=C1\Oc2ccccc2C1=O,58.3
14,COCOc1ccc2c(c1)O/C(=C\c1ccc(OC)cc1)C2=O,98
15,COc1ccc(/C=C2\Oc3cc(OCc4ccc(F)cc4)ccc3C2=O)cc1,85.2
16,COc1ccc(/C=C2\Oc3c(ccc(O)c3O)C2=O)cc1,62.2
17,COCOc1ccc2c(c1)O/C(=C\c1ccc(OC)c(OCOC)c1)C2=O,95.4

# System: not listed separately
# Assay: Selectivity index, ratio of CC50 for cytotoxicity against human Calu-3 cells to EC50 for antiviral activity against SARS-CoV-2 B.1 lineage isolate infected in human Calu-3 cells
# Format: toxicity, cell-based
# Conditions: read-out: Ratio CC50/EC50
row,SMILES,selectivity ratio
1,COc1ccc2c(c1)O/C(=C\c1ccc(O)cc1)C2=O,> 107
2,COc1cc(/C=C2\Oc3ccccc3C2=O)cc(OC)c1OC,> 43.1
3,COc1ccc(/C=C2\Oc3cc(OC)ccc3C2=O)cc1,> 200
4,COc1ccc(/C=C2\Oc3cc(O)ccc3C2=O)cc1O,> 44.6
5,COc1ccc(/C=C2\Oc3cc(OC(F)F)ccc3C2=O)cc1,> 333
6,COCOc1cc(/C=C2\Oc3ccccc3C2=O)ccc1OC,> 300
7,COCOc1cc(/C=C2\Oc3cc(OC)ccc3C2=O)ccc1OC,> 435
8,COCOc1ccc2c(c1)O/C(=C\c1ccc(OC)cc1OCOC)C2=O,2440
9,COc1ccc(/C=C2\Oc3cc(OCc4ccccc4)ccc3C2=O)cc1,> 136
10,COc1ccc2c(c1)O/C(=C\c1ccccc1)C2=O,> 2000
11,COc1ccc(/C=C2\Oc3cc4c(cc3C2=O)OCO4)cc1,> 500
12,COCOc1cc(OC)ccc1/C=C1\Oc2ccccc2C1=O,> 30.5
13,COCOc1ccc2c(c1)O/C(=C\c1ccc(OC)cc1)C2=O,> 1670
14,COc1ccc(/C=C2\Oc3cc(OCc4ccc(F)cc4)ccc3C2=O)cc1,> 104
15,COc1ccc(/C=C2\Oc3c(ccc(O)c3O)C2=O)cc1,> 65.2
16,COCOc1ccc2c(c1)O/C(=C\c1ccc(OC)c(OCOC)c1)C2=O,1630

# — ChEMBL document CHEMBL5321246, “Aurones: A Promising Scaffold to Inhibit SARS-CoV-2 Replication” (J Nat Prod, 2023)
